Test results: patent US20130059787A1, “METHODS OF USING HUMAN PROTEIN KINASE C DELTA VIII AS A BIOMARKER” (UNITED STATES DEPARTMENT OF VETERAN AFFAIRS, priority 2010, published 2013)

What was measured:
[1] = system: 5′ splice site II of PKCδ exon 10; assay: pSPL3_PKCδ splicing minigene in NT2 cells, RT-PCR; format: cell-based, human; details: RA about 10 μM, 24 h
Protocol: (a) schematic represents PKCδ pre-mRNA exon 10 and flanking introns cloned into pSPL3 splicing vector between the SD and SA exons. The resulting minigene is referred to as pSPL3_PKCδ minigene. Arrows indicate position of primers used in RT-PCR analysis. (b) pSPL3_PKCδ minigene and pSPL3 empty vector were transfected overnight, and then the cells were treated with or without about 10 μM RA for about 24 h. Total RNA was extracted and RT-PCR performed using primers as described above. Expected products are SD-SA: constitutive splicing; SSI: usage of 5′ splice site I; SSII: usage of 5′ splice site II. (c) About 2 μg of SC35 or SF2/ASF was co-transfected along with the pSPL3_PKCδ splicing minigene. […] Graphs represent percent exon inclusion calculated as SS II/(SS II+SSI)×100 in the samples and are representative of four experiments performed separately. […]
Splicing minigenes are advantageous to identify cis-elements on the pre-mRNA involved in regulated alternative splicing. […] Since the human PKCδ splice variants used alternative 5′ splice sites as determined previously, exon 10 of PKCδ pre-mRNA along with its flanking 3′ and 5′ intronic sequences was cloned (as described under “Experimental Procedures”) in the multiple cloning site (MCS) between the splice donor (SD) and splice acceptor (SA) exons of pSPL3, a vector developed to study splicing events (schematic shown in FIG. 10a). […]

APP/PS1 transgenic mice = details: RA treatment; cited from earlier work
ischemic stroke = details: RA injections immediately and following ischemia; cited from earlier work

CC1=C(/C=C/C(C)=C/C=C/C(C)=C/C(=O)O)C(C)(C)CCC1 [RA, all-trans-retinoic acid]
utilization of 5′ splice site II of PKCδ exon 10 in pSPL3_PKCδ minigene [1]: increased utilization | APP phosphorylation and processing (APP/PS1 transgenic mice): decreased | Aβ deposition (APP/PS1 transgenic mice): decreased | activation of microglia and astrocytes (APP/PS1 transgenic mice): decreased | neuronal degeneration (APP/PS1 transgenic mice): attenuated | spatial learning and memory (APP/PS1 transgenic mice): improved | tau phosphorylation (APP/PS1 transgenic mice): decreased | infarct volume (ischemic stroke): reduced
